US20220096652A1, “ACETAL-BASED CLEAVABLE LINKERS” (Synaffix B.V., priority 2019, published 2022)
Entries after “also recorded” stand apart in the source; their conditions may differ.

Legend:
[1] = Incubation in 1:1 PBS (pH 7.4) / DMF, UPLC-MS; type: physicochemical; conditions: pH 7.4, Papain NO, 1:1 PBS/DMF, overnight; based on peak area (UV 254 nm)
Procedure: To a 1:1 mixture of PBS (pH 7.4) and DMF (199 μL) was added a 10 mM solution of 10 in DMF (1 μL). The mixture was incubated overnight and analyzed by UPLC-MS. Intermediate 10-Int and DXd were not observed.
To a 1:1 mixture of PBS (pH 7.4) and DMF (199 μL) was added a 10 mM solution of 18 in DMF (1 μL). The mixture was incubated overnight and analysed by UPLC-MS. Intermediate 18-Int and DXd were not observed.
To a 1:1 mixture of PBS (pH 7.4) and DMF (199 μL) was added a 10 mM solution of 26 in DMF (1 μL). The mixture was incubated overnight and analysed by UPLC-MS. Intermediate 26-Int and DXd were not observed.

Papain = biological target: T1, Papain (Carica papaya, UniProt P00784); assay: Papain digestion of linker-drug in histidine acetate buffer, UPLC-MS; type: in vitro ADME; conditions: pH 6, Papain YES, 37° C., 19 h (10, 18) or 67 h (26)
T1 sequence (P00784 134-345): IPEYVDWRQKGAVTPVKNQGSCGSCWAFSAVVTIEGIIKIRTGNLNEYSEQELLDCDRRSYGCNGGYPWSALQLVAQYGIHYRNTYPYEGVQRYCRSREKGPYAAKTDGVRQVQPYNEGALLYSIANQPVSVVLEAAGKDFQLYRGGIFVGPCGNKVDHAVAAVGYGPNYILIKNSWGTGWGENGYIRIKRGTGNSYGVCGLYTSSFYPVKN
Procedure: To an Eppendorf vial containing histidine acetate buffer (50 μL, 20 mM, pH 6) were added a solution of 10 in DMF (3 μL, 10 mM) and a Papain solution in histidine acetate buffer (0.5 mg/mL, 20 mM buffer, pH 6).
To an Eppendorf vial containing histidine acetate buffer (50 μL, 20 mM, pH 6) were added a solution of 18 in DMF (3 μL, 10 mM) and a Papain solution in histidine acetate buffer (0.5 mg/mL, 20 mM buffer, pH 6).
To an Eppendorf vial containing histidine acetate buffer (50 μL, 20 mM, pH 6) were added a solution of 26 in DMF (3 μL, 10 mM) and a Papain solution in histidine acetate buffer (0.5 mg/mL, 20 mM buffer, pH 6).

[2] = Negative control: incubation in histidine acetate buffer pH 6 without Papain, UPLC-MS; type: physicochemical; conditions: pH 6, Papain NO, 37° C., 18 h (10, 18) or 67 h (26); for Ratio DXd / s.m.: based on peak area (UV 254 nm)
Procedure: To an Eppendorf vial containing histidine acetate buffer (110 μL, 20 mM, pH 6) was added a solution of 10 in DMF (3 μL, 10 mM).
To an Eppendorf vial containing histidine acetate buffer (110 μL, 20 mM, pH 6) was added a solution of 18 in DMF (3 μL, 10 mM).
To an Eppendorf vial containing histidine acetate buffer (110 μL, 20 mM, pH 6) was added a solution of 26 in DMF (3 μL, 10 mM). […] The intermediate 26-Int was not observed.

Row | Compound | Ratio DXd / s.m. [1] | Formation of DXd (Papain) | Ratio DXd / s.m. [2] | Formation of DXd [2]
1 | CC[C@@]1(O)C(=O)OCc2c1cc1n(c2=O)Cc2c-1nc1cc(F)c(C)c3c1c2[C@@H](NC(=O)COCOCc1ccc(NC(=O)[C@H](C)NC(=O)[C@@H](NC(=O)OCCOCCNC(=O)OC[C@@H]2[C@@H]4CCC#CCC[C@@H]42)C(C)C)cc1)CC3 [Compound 10] | 0 | only a very small amount of material was transformed into DXd; also recorded: + / − | 0 | –
2 | CC[C@@]1(O)C(=O)OCc2c1cc1n(c2=O)Cc2c-1nc1cc(F)c(C)c3c1c2[C@@H](NC(=O)COC(C)OCc1ccc(NC(=O)[C@H](C)NC(=O)[C@@H](NC(=O)OCCOCCNC(=O)OC[C@@H]2[C@@H]4CCC#CCC[C@@H]42)C(C)C)cc1)CC3 (stereo partly shown) [Compound 18] | 0 | – | 0 | –
3 | CC[C@@]1(O)C(=O)OCc2c1cc1n(c2=O)Cc2c-1nc1cc(F)c(C)c3c1c2[C@@H](NC(=O)COC1(OCc2ccc(NC(=O)[C@H](C)NC(=O)[C@@H](NC(=O)OCCOCCNC(=O)OC[C@@H]4[C@@H]5CCC#CCC[C@@H]54)C(C)C)cc2)CCCCC1)CC3 [Compound 26] | 0 | – | – | partial conversion of 26 into DXd; also recorded: + / −
